Experimental data taken from patent US7781437B2, “Substituted heterocyclic compounds with CXCR3 antagonist activity” (Schering Corporation, priority 2005, dated 2010).
Read-outs that look alike come from different tables or passages of the source.

Biological target: T1, Human CXCR3 (N-delta 4) (Homo sapiens, UniProt P49682)
T1 construct: CD8 leader (N); Flag tag; expressed in transfected cells; membrane preparation
T1 sequence (P49682 5-368 limits assumed): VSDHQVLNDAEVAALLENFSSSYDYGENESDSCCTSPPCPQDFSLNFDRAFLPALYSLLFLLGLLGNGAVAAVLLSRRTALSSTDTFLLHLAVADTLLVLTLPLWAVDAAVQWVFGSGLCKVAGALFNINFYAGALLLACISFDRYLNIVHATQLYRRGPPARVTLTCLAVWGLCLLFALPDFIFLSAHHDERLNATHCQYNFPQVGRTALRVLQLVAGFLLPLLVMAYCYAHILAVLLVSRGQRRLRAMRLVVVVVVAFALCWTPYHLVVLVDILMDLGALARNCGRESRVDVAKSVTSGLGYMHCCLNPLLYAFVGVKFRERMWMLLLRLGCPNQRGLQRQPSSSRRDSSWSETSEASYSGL
Assay: Human CXCR3 (N-delta 4) Scintillation Proximity Assay (SPA), [125I] IP-10 binding to Ba/F3-hCXCR3 (N-delta 4) membranes
Details: [125I] IP-10 displacement
Excerpt: The inventive compounds can readily be evaluated to determine activity at The CXCR3 receptors by known methods, such as, for example, Development of Human CXCR3 (N-delta 4) Binding Assay.
Cloning and Expression of Human CXCR3 (N-delta 4):
The DNA encoding human CXCR3 was cloned by PCR using human genomic DNA (Promega, Madison, Wis.) as a template. The PCR primers were designed based on the published sequence of human orphan receptor GPR9 (1) with incorporated restriction sites, a Kozak consensus sequence, CD8 leader and Flag tag. The PCR product was subcloned into the mammalian expression vector pME18Sneo, a derivative of the SR-alpha expression vector (designated as pME18Sneo-hCXCR3 (N-delta 4).
IL-3-dependent mouse pro-B cells Ba/F3 were transfected by electroporation in 0.4 ml Dulbecco's PBS containing 4×10^6 cells with 20 μg of pME18Sneo-hCXCR3 (N-delta 4) plasmid DNA. Cells were pulsed at 400 Volts, 100 OHMs, 960 μFd. The transfected cells were under selection with 1 mg/ml G418 (Life Technologies, Gaithersburg, Md.). G418-resistant Ba/F3 clones were screened for CXCR3 expression by specific binding of [^125I] IP-10 (NEN Life Science Products, Boston, Mass.).
Preparation of Ba/F3-hCXCR3 (N-delta 4) membranes:
Ba/F3 cells expressing human CXCR3 (N-delta 4) were pelleted and resuspended in the lysis buffer containing 10 mM HEPES , pH 7.5 and Complete® protease inhibitors (1 tablet per 100 ml) (Boehringer Mannheim, Indianapolis, Ind.) at a cell density of 20×10^6 cells per ml. After 5 minutes incubation on ice, cells were transferred to 4639 cell disruption bomb (Parr Instrument, Moline, Ill.) and applied with 1,500 psi of nitrogen for 30 minutes on ice. Large cellular debris was removed by centrifugation at 1,000×g. Cell membrane in the supernatant was sedimented at 100,000×g. The membrane was resuspended in the lysis buffer supplemented with 10% sucrose and stored at −80° C. Total protein concentration of the membrane was determined by BCA method from Pierce (Rockford, Ill.).
Human CXCR3 (N-delta 4) Scintillation Proximitv Assay (SPA):
For each assay point, 2 μg of membrane was preincubated for 1 hr with 300 μg wheat germ agglutinin (WGA) coated SPA beads (Amersham, Arlington Heights, Ill.) in the binding buffer (50 mM HEPES, 1 mM CaCl2, 5 mM MgCl2, 125 mM NaCI, 0.002% NaN3, 1.0% BSA) at room temperature. The beads were spun down, washed once, resuspended in the binding buffer and transferred to a 96-well Isoplate (Wallac, Gaithersburg, Md.). 25 pM of [^125I] IP-10 with tested compounds in a series of titration were added to start the reaction. After 3 hr reaction at room temperature, the amount of [^125I] IP-10 bound to the SPA beads was determined with a Wallac 1450 Microbeta counter.
The Ki values for the various example compounds of the present invention are given in the afore-mentioned Table 1. From these values, it would be apparent to the skilled artisan that the compounds of the invention have excellent utility CXCR3 antagonists.

[1] = specific Ki values (Table 2), read-out: Ki

Row | SMILES | Ki (read-out: Ki rating) | Ki [1]
1 | CC[C@H]1CN(c2c(Cl)nc(-c3nnc(N)o3)c(=O)n2C)CCN1C1CCN(Cc2ccc(Cl)nc2)CC1 [Compound Number 5] | < 25 nM | 1.9 nM
2 | CC[C@H]1CN(c2c(Cl)nc(C(=O)OC)c(=O)n2C)CCN1C1CCN(Cc2ccc(Cl)cc2F)CC1 [Compound Number 8] | 25 to 100 nM | 
3 | CC[C@H]1CN(c2nc(O)c(-c3nnc(N)o3)nc2Cl)CCN1C1CCN(Cc2ccc(Cl)cc2)CC1 [Compound Number 13] | > 100 nM | 
4 | CC[C@H]1CN(c2c(C)nc(C(N)=O)c(=O)n2C)CCN1C1CCN(Cc2ccc(Cl)cc2F)CC1 [Compound Number 7] | 25 to 100 nM | 
5 | CC[C@H]1CN(c2c(Cl)nc(-c3nnc(N)o3)c(=O)n2C)CCN1C1CCN(C(=O)c2ccc(Cl)nc2N)CC1 [Compound Number 3] | < 25 nM | 7.5 nM
6 | CCNc1nnc(-c2nc(C)c(N3CCN(C4CCN(C(=O)c5ccc(Cl)nc5N)CC4)[C@@H](CC)C3)n(C)c2=O)o1 [Compound Number 2] | < 25 nM | 2.6 nM
7 | CC[C@H]1CN(c2c(Cl)nc(-c3nnc(N)o3)c(=O)n2C)CCN1C1CCN(Cc2cc(F)c(Cl)cc2F)CC1 [Compound Number 9] | 25 to 100 nM | 
8 | CC[C@H]1CN(c2c(Cl)nc(C(N)=O)c(=O)n2C)CCN1C1CCN(Cc2ccc(Cl)nc2N)CC1 [Compound Number 10] | 25 to 100 nM | 
9 | CC[C@H]1CN(c2cnc(C(N)=O)c(=O)n2C)CCN1C1CCN(Cc2ccc(Cl)nc2N)CC1 [Compound Number 12] | > 100 nM | 
10 | CC[C@H]1CN(c2c(Cl)nc(-c3nnc(N)o3)c(=O)n2C)CCN1C1CCN(Cc2ccc(Cl)cc2)CC1 [Compound Number 1] | < 25 nM | 1.9 nM
11 | CC[C@H]1CN(c2c(Cl)nc(-c3nnc(N)o3)c(=O)n2C)CCN1C1CCN(Cc2cc(F)c(F)cc2Cl)CC1 [Compound Number 11] | 25 to 100 nM | 
12 | CC[C@H]1CN(c2c(Cl)nc(-c3nnc(N)o3)c(=O)n2C)CCN1C1CCN(C(=O)c2ccc(Cl)cc2)CC1 [Compound Number 6] | 25 to 100 nM | 
13 | CC[C@H]1CN(c2c(Cl)nc(C(N)=O)c(=O)n2C)CCN1C1CCN(Cc2ccc(Cl)cc2F)CC1 [Compound Number 4] | < 25 nM | 8.3 nM
